Source: patent publication US8354410B2 (Bristol-Meyers Squibb Company, priority 2010, dated 2013)

Key:
HCV NS5B = biological target: T1, HCV NS5B (Hepatitis C virus genotype 1b, UniProt Q9WMX2); assay: HCV NS5B RdRp enzyme assay; format: biochemical; conditions: HCV NS5B RdRp genotype 1b; standard or modified assay not specified
T1 construct: The protein was expressed with an 18 amino acid C-terminal truncation to enhance the solubility; made in house; host or cells: E. coli BL21(DE3)
Procedure: HCV NS5B RdRp cloning, expression, and purification. The cDNA encoding the NS5B protein of HCV, genotype 1b, was cloned into the pET21a expression vector. The protein was expressed with an 18 amino acid C-terminal truncation to enhance the solubility. The E. coli competent cell line BL21(DE3) was used for expression of the protein. Cultures were grown at 37° C. for ˜4 hours until the cultures reached an optical density of 2.0 at 600 nm. The cultures were cooled to 20° C. and induced with 1 mM IPTG. Fresh ampicillin was added to a final concentration of 50 μg/ml and the cells were grown overnight at 20° C.
Cell pellets (3 L) were lysed for purification to yield 15-24 mgs of purified NS5B. The lysis buffer consisted of 20 mM Tris-HCl, pH 7.4, 500 mM NaCl, 0.5% triton X-100, 1 mM DTT, 1 mM EDTA, 20% glycerol, 0.5 mg/ml lysozyme, 10 mM MgCl2, 15 ug/ml deoxyribonuclease I, and Complete TM protease inhibitor tablets (Roche). After addition of the lysis buffer, frozen cell pellets were resuspended using a tissue homogenizer. To reduce the viscosity of the sample, aliquots of the lysate were sonicated on ice using a microtip attached to a Branson sonicator. The sonicated lysate was centrifuged at 100,000×g for 1 hr at 4° C. and filtered through a 0.2 μm filter unit (Corning).
The protein was purified using three sequential chromatography steps: Heparin sepharose CL-6B, polyU sepharose 4B, and Hitrap SP sepharose (Pharmacia). The chromatography buffers were identical to the lysis buffer but contained no lysozyme, deoxyribonuclease I, MgCl2 or protease inhibitor and the NaCl concentration of the buffer was adjusted according to the requirements for charging the protein onto the column. Each column was eluted with a NaCl gradient which varied in length from 5-50 column volumes depending on the column type. After the final chromatography step, the resulting purity of the enzyme is >90% based on SDS-PAGE analysis. The enzyme was aliquoted and stored at −80° C.
Standard HCV NS5B RdRp enzyme assay. HCV RdRp genotype 1b assays were run in a final volume of 60 μl in 96 well plates (Costar 3912). The assay buffer is composed of 20 mM Hepes, pH 7.5, 2.5 mM KCl, 2.5 mM MgCl2, 1 mM DTT, 1.6 U RNAse inhibitor (Promega N2515), 0.1 mg/ml BSA (Promega R3961), and 2% glycerol. All compounds were serially diluted (3-fold) in DMSO and diluted further in water such that the final concentration of DMSO in the assay was 2%. HCV RdRp genotype 1b enzyme was used at a final concentration of 28 nM. A polyA template was used at 6 nM, and a biotinylated oligo-dT12 primer was used at 180 nM final concentration. Template was obtained commercially (Amersham 27-4110). Biotinylated primer was prepared by Sigma Genosys. 3H-UTP was used at 0.6 μCi (0.29 μM total UTP). Reactions were initiated by the addition of enzyme, incubated at 30° C. for 60 min, and stopped by adding 25 μl of 50 mM EDTA containing SPA beads (4 μg/μl, Amersham RPNQ 0007). Plates were read on a Packard Top Count NXT after >1 hr incubation at room temperature.
Modified HCV NS5B RdRp enzyme assay. A modified enzyme assay was performed essentially as described for the standard enzyme assay except for the following: The biotinylated oligo dT12 primer was precaptured on streptavidin-coated SPA beads by mixing primer and beads in assay buffer and incubating at room temperature for one hour. Unbound primer was removed after centrifugation. The primer-bound beads were resuspended in 20 mM Hepes buffer, pH 7.5 and used in the assay at final concentrations of 20 nM primer and 0.67 μg/μl beads. Order of addition in the assay: enzyme (14 nM) was added to diluted compound followed by the addition of a mixture of template (0.2 nM), 3H-UTP (0.6 μCi, 0.29 μM), and primer-bound beads, to initiate the reaction; concentrations given are final. Reactions were allowed to proceed for 4 hours at 30° C.
IC50 values for compounds were determined using seven different [I]. […]

HCV replicon = HCV replicon assay (FRET / luciferase reporter); format: cell-based, HCV (HUH-7 cells); conditions: Hepatitis C virus; HCV replicon cells
Excerpt: FRET Assay Preparation. To perform the HCV FRET screening assay, 96-well cell culture plates were used. The FRET peptide (Anaspec, Inc.) (Taliani et al., Anal. Biochem. 1996, 240, 60-67) contains a fluorescence donor, EDANS, near one end of the peptide and an acceptor, DABCYL, near the other end. The fluorescence of the peptide is quenched by […] resonance energy transfer (RET) between the donor and the acceptor, but as the NS3 protease cleaves the peptide the products are released from RET quenching and the fluorescence of the donor becomes apparent. The assay reagent was made as follows: 5× cell Luciferase cell culture lysis reagent from Promega (#E153A) diluted to 1× with dH2O, NaCl added to 150 mM final, the FRET peptide diluted to 20 μM final from a 2 mM stock.
To prepare plates, HCV replicon cells, with or without a Renilla luciferase reporter gene, were trypsinized and placed into each well of a 96-well plate with titrated test compounds added in columns 3 through 12; columns 1 and 2 contained a control compound (HCV protease inhibitor), and the bottom row contained cells without compound. The plates were then placed in a CO2 incubator at 37° C.
Assays. Subsequent to addition of the test compounds described above (FRET Assay Preparation), at various times the plate was removed and Alamar blue solution (Trek Diagnostics, #00-100) was added per well as a measure of cellular toxicity. After reading in a Cytoflour 4000 instrument (PE Biosystems), plates were rinsed with PBS and then used for FRET assay by the addition of 30 ul of the FRET peptide assay reagent described above (FRET Assay Preparation) per well. The plate was then placed into the Cytoflour 4000 instrument which had been set to 340 excite/490 emission, automatic mode for 20 cycles and the plate read in a kinetic mode. Typically, the signal to noise using an endpoint analysis after the reads was at least three-fold. Alternatively, after Alamar blue reading, plates were rinsed with PBS, 50 ul of DMEM (high glucose) without phenol red was added and plates were then used for luciferase assay using the Promega Dual-Glo Luciferase Assay System.
Compound analysis was determined by quantification of the relative HCV replicon inhibition and the relative cytotoxicity values. To calculate cytoxicity values, the average Alamar Blue fluorescence signals from the control wells were set as 100% non-toxic. The individual signals in each of the compound test wells were then divided by the average control signal and multiplied by 100% to determine […]. To calculate the HCV replicon inhibition values, an average background value was obtained from the two wells containing the highest amount of HCV protease inhibitor at the end of the assay period. These numbers were similar to those obtained from naïve Huh-7 cells.
The background numbers were then subtracted from the average signal obtained from the control wells and this number was used as 100% activity. The individual signals in each of the compound test wells were then divided by the averaged control values after background subtraction and multiplied by 100% to determine percent activity. EC50 values for a protease inhibitor titration were calculated as the concentration which caused a 50% reduction in FRET or luciferase activity. The two numbers generated for the compound plate, percent cytoxicity and percent activity were used to determine compounds of interest for further analysis.
The HCV replicon luciferase assay was developed to monitor the inhibitory effects of compounds described in the disclosure on HCV viral replication. Utilization of a replicon luciferase reporter assay was first described by Krieger et al (Krieger N, Lohmann V, and Bartenschlager R, J. Virol. 75(10):4614-4624 (2001)). HUH-7 cells, constitutively expressing the HCV replicon, were grown in Dulbecco's Modified Eagle Media (DMEM) (Gibco-BRL) containing 10% Fetal calf serum (FCS) (Sigma) and 1 mg/ml G418 (Gibco-BRL). […]

T1 sequence (Q9WMX2 2420-2992): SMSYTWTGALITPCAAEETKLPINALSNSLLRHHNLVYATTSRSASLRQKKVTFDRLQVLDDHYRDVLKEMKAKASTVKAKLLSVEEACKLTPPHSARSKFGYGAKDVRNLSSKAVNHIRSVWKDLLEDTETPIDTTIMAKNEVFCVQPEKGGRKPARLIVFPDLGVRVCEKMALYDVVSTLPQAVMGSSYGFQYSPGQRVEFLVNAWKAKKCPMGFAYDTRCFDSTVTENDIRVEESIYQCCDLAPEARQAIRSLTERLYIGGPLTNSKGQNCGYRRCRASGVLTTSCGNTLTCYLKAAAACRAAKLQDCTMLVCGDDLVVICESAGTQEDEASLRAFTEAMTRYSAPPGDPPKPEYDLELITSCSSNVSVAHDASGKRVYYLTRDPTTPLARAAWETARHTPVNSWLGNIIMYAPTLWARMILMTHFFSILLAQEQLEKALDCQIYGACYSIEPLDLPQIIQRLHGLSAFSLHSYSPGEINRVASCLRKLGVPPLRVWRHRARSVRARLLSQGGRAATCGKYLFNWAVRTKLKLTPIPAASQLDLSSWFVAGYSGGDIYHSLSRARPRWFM

Structure (SMILES) | IC50 (HCV NS5B) [nM] | EC50 (HCV replicon) [nM]
CNC(=O)c1c(-c2ccc(F)cc2)oc2ccc(-c3cc(C(=O)NC4(c5ccc6cccnc6n5)CC4)cc(F)c3C)c(F)c12 | 10 | 70
CNC(=O)c1c(-c2ccc(F)cc2)oc2ccc(-c3cc(C(=O)NC4(c5ccc6ncccc6n5)CC4)ccc3C)cc12 | 10 | 30
CNC(=O)c1c(-c2ccc(F)cc2)oc2ccc(-c3cc(C(=O)NC4(c5ccc6ccncc6n5)CC4)c(OC)cc3OCC(N)=O)cc12 | 5 | 4
CNC(=O)c1c(-c2ccc(F)cc2)oc2ccc(-c3cc(C(=O)N[C@@H](C)c4nc5cnccc5o4)c(OC)cc3C)c(F)c12 | 60 | 20
CNC(=O)c1c(-c2ccc(F)cc2)oc2ccc(-c3cc(C(=O)NC4(c5nc6cnccc6o5)CC4)ccc3C)c(F)c12 | 20 | 4
CNC(=O)c1c(-c2ccc(F)cc2)oc2ccc(-c3cc(C(=O)NC4(c5ccc6cnccc6n5)CC4)ccc3C)cc12 | 8 | 2
CNC(=O)c1c(-c2ccc(F)cc2)oc2ccc(-c3cc(C(=O)N[C@H](C)c4nc5cnccc5o4)c(OC)cc3C)c(F)c12 | 40 | 10
CNC(=O)c1c(-c2ccc(F)cc2)oc2ccc(-c3cc(C(=O)NC4(c5nc6cnccc6o5)CC4)ccc3C)cc12 | 20 | 1
CNC(=O)c1c(-c2ccc(F)cc2)oc2ccc(-c3cc(C(=O)NC4(c5ccc6[nH]ccc6n5)CC4)ccc3C)c(F)c12 | 20 | 7
CNC(=O)c1c(-c2ccc(F)cc2)oc2ccc(-c3cc(C(=O)NC4(c5nc6cnccc6o5)CC4)c(OC)cc3C)cc12 | 10 | 1
CNC(=O)c1c(-c2ccc(F)cc2)oc2ccc(-c3cc(C(=O)NC4(c5nc6cnccc6o5)CC4)cc(F)c3C)c(F)c12 [4-fluoro-5-(3-fluoro-2-methyl-5-(1-(oxazolo[4,5-c]pyridin-2-yl)cyclopropylcarbamoyl)phenyl)-2-(4-fluorophenyl)-N-methylbenzofuran-3-carboxamide] | 20 | 6
CNC(=O)c1c(-c2ccc(F)cc2)oc2ccc(-c3cc(C(=O)NC4(c5ccc6ccncc6n5)CC4)c(OC)cc3C)c(F)c12 [5-(5-(1-(1,7-naphthyridin-2-yl)cyclopropylcarbamoyl)-4-methoxy-2-methylphenyl)-4-fluoro-2-(4-fluorophenyl)-N-methylbenzofuran-3-carboxamide] | 30 | 6
CNC(=O)c1c(-c2ccc(F)cc2)oc2ccc(-c3cc(C(=O)NC4(c5nc6cnccc6o5)CC4)cc(F)c3C)cc12 [5-(3-fluoro-2-methyl-5-(1-(oxazolo[4,5-c]pyridin-2-yl)cyclopropylcarbamoyl)phenyl)-2-(4-fluorophenyl)-N-methylbenzofuran-3-carboxamide] | 20 | 3
CNC(=O)c1c(-c2ccc(F)cc2)oc2ccc(-c3cc(C(=O)NC4(c5nccc6[nH]ccc56)CC4)ccc3C)c(F)c12 | – | 60
CNC(=O)c1c(-c2ccc(F)cc2)oc2ccc(-c3cc(C(=O)NC4(c5ccc6ccncc6n5)CC4)ccc3C)c(F)c12 | 20 | 6
CNC(=O)c1c(-c2ccc(F)cc2)oc2ccc(-c3cc(C(=O)NC4(c5ccc6ncccc6n5)CC4)cc(F)c3C)c(F)c12 [5-(5-(1-(1,5-naphthyridin-2-yl)cyclopropylcarbamoyl)-3-fluoro-2-methylphenyl)-4-fluoro-2-(4-fluorophenyl)-N-methylbenzofuran-3-carboxamide] | 70 | 100
CNC(=O)c1c(-c2ccc(F)cc2)oc2ccc(-c3cc(C(=O)NC4(c5nc6cnccc6o5)CC4)c(OC)cc3C)c(F)c12 | 40 | 1
CNC(=O)c1c(-c2ccc(F)cc2)oc2ccc(-c3cc(C(=O)NC4(c5ccc6cnccc6n5)CC4)c(OC)cc3C)c(F)c12 [5-(5-(1-(1,6-naphthyridin-2-yl)cyclopropylcarbamoyl)-4-methoxy-2-methylphenyl)-4-fluoro-2-(4-fluorophenyl)-N-methylbenzofuran-3-carboxamide] | 100 | 9
CNC(=O)c1c(-c2ccc(F)cc2)oc2ccc(-c3cc(C(=O)NC4(c5ncc6cnccc6n5)CC4)ccc3C)c(F)c12 | 6 | 20
CNC(=O)c1c(-c2ccc(F)cc2)oc2ccc(-c3cc(C(=O)NC4(c5ccc6ncccc6n5)CC4)ccc3C)c(F)c12 | 10 | 30
CNC(=O)c1c(-c2ccc(F)cc2)oc2ccc(-c3cc(C(=O)N[C@H](C)c4nc5cnccc5o4)cc(F)c3C)c(F)c12 [5-(5-(1-(1H-imidazo[4,5-o]pyridin-2-yl)cyclopropylcarbamoyl)-2-methylphenyl)-4-fluoro-2-(4-fluorophenyl)-N-methylbenzofuran-3-carboxamide] | 30 | 40
